The values that follow come from US20040049807A1, “Fatty acid desaturase gene and protein for modulating activation of defense signaling pathways in plants” (priority 2003, published 2004).

In data set [1] the test system is B. cinerea. Kind of data set: disease resistance to B. cinerea. Format: in vivo, Arabidopsis. As to conditions: exogenously applied, ssi2 or ssi2 nahG plants. As to the method:
FIG. 9. Analysis of disease resistance to B. cinerea. Infections with B. cinerea were carried out by wounding the leaves by needle pricks and subsequently spot inoculating spores at the wounded site. The number of pricks made per leaf were based on the leaf size and ranged from three per leaf for SSI2 (Nö) to one per leaf for the ssi2 mutant. Plants were treated with either water or 50 μM JA for 48 h prior to and throughout the infection and the inoculated leaves were photographed at 10 dpi.

Data set [2] deals with root growth. Briefly: inhibition of root growth. It counts as in vivo, Arabidopsis. As to conditions: ssi2 plants.
In data set [3] the test system is THI2.1. Kind of data set: THI2.1 gene expression (northern blot). It counts as in vivo, Arabidopsis. As to conditions: ssi2 plants. How it is done: (§1) FIG. 8. Expression of the SSI2 gene. (FIG. 8A) Histochemical staining of GUS activity in the leaves and inflorescence of transgenic plants expressing an SSI2::: GUS reporter gene. A 1631 bp fragment containing the SSI2 promoter was transcriptionally fused upstream of GUS in pBI121 and three independent transgenic lines were analyzed in both T1 and T2 generations. The control is a stained leaf from a wt plant. (FIG. 8B) Northern blot analysis of SSI2 (Nö), npr1-5, jar1-1 and ssi2 plants treated with water or 50 μM JA. RNA was extracted at 48 hour (h) post treatment and the blot was sequentially probed with SSI2, PDF1.2, and THI2.1. Ethidium bromide-stained rRNA served as a control for gel loading. (FIG. 8C) Northern blot analysis of plants inoculated with spores of Alternaria brassicicola. Mock (M) or fungal (A) inoculations were carried out as described previously (12). RNA was extracted at 72 h post inoculation and PDF1.2 gene expression was monitored. (FIG. 8D) Northern blot analysis of SSI2, npr1-5, jar1-1, NahG, etr1-1 and ssi2 plants treated with methanol or 50 μM MeJA. The plants were placed around a beaker containing methanol or MeJA diluted in methanol and covered with plastic wrap. RNA was prepared from leaves harvested at 48 h post treatment and analyzed for PDF1.2 gene expression.
RNA extraction and northern analyses. […]

Data set [4] concerns PDF1.2. Kind of data set: PDF1.2 gene expression (northern blot). Format: in vivo, Arabidopsis. As to the method:
as §1, with “A 1631 bp fragment containing the SSI2 promoter was transcriptionally fused upstream of GUS in pBI121 and three independent transgenic lines were analyzed in both T1 and T2 generations.” left out
FIG. 10. […] Oleic acid (18:1; 0.5 mM, Sigma) or water was injected into the leaves of SSI2 (Nö), ssi2 or ssi2 nahG plants followed by treatment with 50 μM JA or water. Eight to ten individual plants each of SSI2, ssi2 or ssi2 nahG were analyzed in two independent experiments. RNA was extracted at 48 h post treatment and PDF1.2 gene expression was monitored by northern blot analysis. Ethidium bromide-stained rRNA served as a control for gel loading.
RNA extraction and northern analyses. Small-scale extraction of RNA from one or two leaves was performed in the TRIzol reagent (GIBCO-BRL, Gaithersburg, Md.) following the manufacturer's instructions. Northern blot analysis and synthesis of random primed probes for PR-1, BGL2 and PR-5, PDF1.2 and THI2.1 were synthesized.

For data set [5], the system named is SSI2 gene expression. Briefly: SSI2 gene expression after treatment (northern analysis). Format: in vivo, Arabidopsis. As to conditions: 12, 24 or 48 hours after treating plants.
In data set [6] the test system is PR-1, BGL2 and PR-5 gene transcripts. Kind of data set: PR gene expression after chemical treatment of plants (northern blot). It counts as in vivo, Arabidopsis. How it is done:
Chemical treatment of plants. Four-week-old plants were sprayed and sub-irrigated with a solution of SA […] or BTH […] in water as previously described (Shah et al. 1997). As controls, plants were similarly treated with water. Leaves were harvested at the indicated times after treatment and quick-frozen in liquid nitrogen. Leaf samples were stored at −80° C.
RNA extraction, northern and dot blot analyses. Large-scale preparation of RNA from Arabidopsis was carried out Small-scale extraction of RNA from one or two leaves was performed in the TRIzol reagent (GIBCO-BRL, Gaithersburg, Md.) following manufacturer's instructions. Northern blot analysis and synthesis of random primed probes for PR-i, BGL2 and PR-5 were synthesized as described earlier (Shah et al. 1997).

Data set [7] is described as follows: in vitro S-ACP desaturase assay.

For the molecule `CC/C=C\CC1C(=O)CCC1CC(=O)OC` (stereo not drawn) [MeJA, methyl JA], in data set [1], the B. cinerea resistance entry is given as “failed to restore”. In data set [2], the “inhibition of root growth” value is on record as “unaffected”.

As to `CC/C=C\C[C@H]1C(=O)CC[C@@H]1CC(=O)O` [JA, jasmonic acid], the “induced activation of the THI2.1 gene” value in data set [3] is on record as “unaffected”. For the same molecule, the PDF1.2 expression entry is recorded as “induced only low to undetectable levels” in data set [4] (ssi2 NPR1, ssi2 npr1-5 or jar1-1 plants, 50 μM, 48 h); “activated PDF1.2 expression effectively” in data set [4] (wt and npr1-5 plants, 50 μM, 48 h). The SSI2 gene expression entry in data set [5] was “did not increase substantially over basal levels”. Besides, the B. cinerea resistance entry in data set [1] is recorded as “failed to restore”. In addition, the “inhibition of root growth” value in data set [2] was “unaffected”.

Turning to `c1ccc2snnc2c1` [BTH, benzothiadiazole], the “accumulation of PR-1 transcript” value in data set [6] (ssi2 NPR1 nahG plants) is given as “increased”. In data set [6] (ssi2 npr1-5 nahG plants), the PR-1 expression entry is “not”.

For the molecule `CCCCCCCCCCCCCCCCCC(=O)O` [18:0, stearic acid], in data set [6] (exogenous application, wt plants), the PR-1 gene expression result is “does not induce”.

In the case of `O=C(O)c1ccccc1O` [SA, salicylic acid], the “accumulation of the PR gene transcripts” value in data set [6] (exogenous application, ssi2 npr1-5 plant) was “did not further increase”. In addition, the SSI2 gene expression result in data set [5] is on record as “did not increase substantially over basal levels”.

Take “mutant protein: ssi2 mutant S-ACP desaturase with leucine 146 changed to phenylalanine, bacterial-expressed (LRERARELPDDYFVVLVGDMITEEAFPTYQTMLNTLDGVRDETGASPTSWAIWTRAWTAE; (26)..(26) Phe residue instead of Leu present at position corresponding to residue 146 of wild type.; listed as Arabidopsis thaliana)”: the entries for the “fold less active than wt” value in data set [7] (16:0 substrate) and in data set [7] (18:0 substrate) were roughly 20 fold and “approximately 10 fold”, respectively. Moreover, the “18:16 substrate preference ratio and Δ^9 regiospecificity” value in data set [7] (in contrast to the wt) is given as “unaltered”. Besides, the “activity lower than that of the wt enzyme” value in data set [7] (overall summary) is given as 10-20 fold.

Consider `C=C` [ethylene], for which the PDF1.2 expression entry in data set [4] (10 or 20 parts per million, ssi2 plants) is reported as “not”; in data set [4] (10 or 20 parts per million, wt plants), “induced PDF1.2 expression”. For the same molecule, the SSI2 gene expression result in data set [5] is on record as “did not increase substantially over basal levels”.

B1: Wt SSI2: wild-type Arabidopsis SSI2 stearoyl-ACP desaturase (SEQ ID NO:3), expressed in Escherichia coli and purified (protein, listed as Arabidopsis thaliana)
chain: MALKFNPLVASQPYKFPSSTRPPTPSFRSPKFLCLASSSPALSSGPKEVESLKKPFTPPREVHVQVLHSMPPQKIEIFKSMENWAEENLLIHLKDVEKSWQPQDFLPDPASDGFEDQVRELRERARELPDDYFVVLVGDMITEEALPTYQTMLNTLDGVRDETGASPTSWAIWTRAWTAEENRHGDLLNKYLYLSGRVDMRQIEKTIQYLIGSGMDPRTENNPYLGFIYTSFQERATFISHGNTARQAKEHGDIKLAQICGTIAADEKRHETAYTKIVEKLFEIDPDGTVMAFADMMRKKISMPAHLMYDGRNDNLFDNFSSVAQRLGVYTAKDYADILEFLVGRWKIQDLTGLSGEGNKAQDYLCGLAPRIKRLDERAQARAKKGPKIPFSWIHDREVQL
Molecule B1 came in with a specific activity in data set [7] (purified enzyme expressed in Escherichia coli) of roughly 800 nm/min/mg.
